According to patent US11505556B2, “Halogenated derivatives of morphinans and uses thereof” (Xalud Therapeutics, Inc., priority 2017, dated 2022):

Experiments:
hind paw incision pain = experiment: Rat hind paw incision pain model, SC dosing, von Frey testing (Example 2); type: in vivo; conditions: for effect on pain threshold (von Frey), day 1 and day 5 dosing: SC 3x per day for 5 days, XT-203 28 or 30 mg/kg, (+)-NTX data not shown
Method: Rats were housed in temperature (23+/−3° C.) and light (12 hour:12 hour, light:dark cycle; lights on at 0700) controlled rooms with standard rodent chow and water available ad libitum.
Von Frey Test for Mechanical Allodynia: Rats received at least three 60 min habituations to the test environment prior to behavioral testing. Response thresholds to calibrated light pressure stimuli applied to the plantar surface of the paws was measured using the von Frey test. […] All testing was conducted blind with respect to group assignment. The behavioral responses were used to calculate the threshold, by fitting a Gaussian integral psychometric function using a maximum-likelihood fitting method, as described in detail previously (Id.). Allodynia was assessed pre- and post-drug delivery.
Behavior testing for pain responses by von Frey testing was used to establish pain thresholds in the affected hind paw. Because dosage was 3×/day, behavior testing was performed after the first and second dose of day 1 dosing (1.1, 1.2) and after the first and second dose of day 5 dosing (5.1, 5.2). Testing sessions were performed 30 minutes after the dose was administered.

[1] = system: off-target screening panel; experiment: Off-target inhibition screening (whole panel); conditions: 10 μM test concentration, hit = inhibition at or above the 50% level
Text: In addition to the animal studies presented above in Examples 1-9, the results of in vitro testing of several of the compounds (i.e., XT-203, XT-204, and XT-206 through XT-217) are shown in Table 5 and Table 6. […]. Nine additional compounds had two or fewer off-target hits in the screening. […] These compounds spanned all of the tested N-modification classes. […]. Thus, the medicinal chemistry approach taken in this series of fluorinated compounds can yield low off-target activity and longer metabolic lifetime while preserving TLR4 antagonism. It is appreciated that further development of compounds in this class, using techniques known to those skilled in the art, may yield additional compounds with desirable pharmacologic and toxicologic characteristics.

[2] = system: CCI neuropathic pain (mechanical allodynia); experiment: Rat CCI model, oral and subcutaneous phases (Study R042); type: in vivo
Method: Rat chronic constriction injury model-Oral and subcutaneous (+)-NTX and XT-203: An efficacy study was conducted in the rat chronic constriction injury (CCI) model (Study R042). The study design comprised two phases. A five-day period of oral (PO) dosing and behavioral testing was followed by a five-day period of subcutaneous (SC) dosing, with a two-day washout period between these periods. Dosing on each day was performed three times a day (TID). Behavioral testing for mechanical allodynia was performed on the first and fifth days of dosing, at three times on those days: before the first dose of the day, 30 minutes after the first dose of the day, and 30 minutes after the second dose of the day. Thus, day 5 testing is designated as pre5.1 (before the first dose of the day), 5.1 (fifth day, after first dose) or 5.2 (fifth day, after second dose). On day 5 of the subcutaneous dosing phase, a second testing period was introduced 60 minutes after the second dose. (+)-NTX (6, 18, and 60 mg/kg) and XT-203. Mechanical allodynia was tested manually, using the Chaplan up-down testing method. The results are shown in FIGS. 10A and 10B, with the oral (PO) phase presented as the first pair of graphs. After the two-day washout, the subcutaneous (SC) phase was carried out with the results shown in the graphs at FIGS. 10C and 10D.
The CCI model was well established in this study, with allodynic response thresholds between 2 and 3 grams (presurgical baseline thresholds at 15 g, not shown). […] This is especially remarkable given the extremely rapid metabolism and pharmacokinetics of (+)-NTX (see FIG. 9). Here, the dampening of efficacy due to lack of significant amounts of parent compound is particularly evident. Thus, the appropriate dose-ranging conditions in animal models should reflect (+)-NTX serum levels during efficacy testing, to match pharmacokinetics with pharmacodynamics. […] Efficacy is only observed after the first dose on day 5. Thus, changes designed to improve compound stability do provide improved efficacy.

[3] = system: TLR4 (LPS-stimulated NO production, BV-2 mouse microglia cell line); experiment: NO assay: inhibition of LPS-induced NO production in BV-2 microglia (iNOS cellular); type: cell-based; conditions: for inhibition of NO production from LPS-stimulated BV2 cells: FIGS. 8B to 8D
Text: NO assay: Microglia are the resident cells of the innate immune system in the central nervous system, and TLR4 is primarily expressed by microglia rather than astrocytes or neurons in the CNS. Given this expression profile, the BV-2 mouse microglia cell line was used as the model system of microglia, as these cells recapitulate many of the responses of primary microglia with high fidelity. TLR4 activation induces the downstream production of the inflammatory factor NO, which contributes to the development of neuropathic pain and drug addiction. BV-2 murine microglia were grown in supplemented DMEM (including 10% FBS, 50 unit mL^−1 penicillin, 50 μg·mL^−1 streptomycin). BV-2 cells were detached from the flask by trypsin digestion when ˜80% confluence was reached. Cells were seeded at a density of 4×10^4 cells per well in 96-well plates. After overnight incubation, media was aspirated and changed to DMEM media without FBS. Cells were then treated with LPS (200 ng/ml) and different concentrations of the testing compounds. After 24 h treatment, 100 μL of supernatant media was removed after cells were treated for 24 h and added to flat black 96-well microfluor plates (Thermo Scientific, MA, USA). Subsequently, 10 μL of 2, 3-diaminonaphthalene (0.05 mg·mL^−1 in 0.62 M HCl) was added to each well and incubated for 15 min. The reaction was quenched by addition of 5 μL of 3 M NaOH and the plate was read on a Beckman Coulter DTX880 reader (Fullerton, Calif., USA) with excitation at 360 nm and emission at 430 nm.
N chain NTX: This experimentation involved an in vitro assay where mouse BV2 cells were treated with LPS, which results in the release of nitric oxide (NO). Blockade of TLR4 activity results in reduced NO production. Therefore, IC50 values were determined for test compounds that antagonize TLR4 activity. A series of test compounds were prepared, with different N-alkyl chains replacing the cyclopropyl methyl found in naltrexone. Cell viability was also measured by a standard assay, e.g., measurement of the release of cytoplasm-resident enzymes in the tissue culture supernatant or media to detect cell loss/lysis/rupture. A dose-inhibition curve was generated by testing the TLR4 antagonist compound for the ability to block LPS-stimulated iNOs induction. In FIG. 7, the inhibition levels across a range of doses are graphed, along with a regression curve. The IC50 value—50% inhibition level—is also provided, graphed against the length of the alkyl chain. Note that with longer N-alkyl chain the IC50 was reduced, although cell viability became problematic.
FIGS. 8B to 8D show the results of the inhibition of NO production from LPS-stimulated BV2 cells using the assay described above.

Mouse hepatocytes = experiment: Hepatocyte elimination of parent compound
[4] = system: bone fracture pain, paw withdrawal threshold; experiment: Mouse bone fracture model, morphine potentiation
Text: Male adult C57BL6 mice, 8-10 weeks old, were anaesthetized with isoflurane mixed with oxygen throughout the surgical procedure. Animals were placed on a thermo-blanket temperature control system. The left knee area was disinfected with povidone/iodine-soaked cotton. A 0.5 cm incision was made on the knee, exposing the front area of the knee. A 27-gauge sterile needle was inserted into the tibial bone medullar canal to secure the fractured bone. The left tibia bone was gently broken using a pair of cushioned pliers. A single dose of antibiotic (Amoxipen 100 mg/kg, IP) was administered for prevention of infection after surgery. The animal was placed in a temperature-controlled recovery chamber until fully awake before being placed in a plastic cage bedded with clean, soft sawdust, with food and water easily accessible. The condition of the animals was closely monitored and recorded. All compounds, dissolved in normal saline, were dosed intraperitoneally in a volume of 5 ml/kg. PWT testing, as described above, was performed at 1, 2, and 4 hours.
In both cases, morphine was dosed at 2 mg/kg IP.

Compound | effect on pain threshold (von Frey), day 1 and day 5 dosing (hind paw incision pain) | off-target hits in the screening [1] | off-target hits in the screening ([1]; listed as XT-202) | efficacy on mechanical allodynia, medium and high doses ([2]; (+)-NTX 18 and 60 mg/kg TID, PO d1, SC d1, SC d5 panels) | inhibition of NO production from LPS-stimulated BV2 cells [3] | IC50 ([3]; LPS (200 ng/ml), 24 h, BV-2 cells, Table 3) [µM] | IC50 ([3]; Table 6, unit inferred, footnote: Indicator of TL4 antagonism) [µM] | glucuronidation of parent compound (Mouse hepatocytes; mouse hepatocytes, compared with XT-203) | adverse effects during observation [4] | effect during day 5 testing compared with morphine 3 mg/kg (hind paw incision pain; XT-203 28 or 30 mg/kg SC 3x per day) | reversal of allodynia at pre5.1 (before first dose of day 5) ([2]; XT-203 18 mg/kg SC TID) | efficacy on mechanical allodynia, subcutaneous, day 5 ([2]; XT-203 18 mg/kg SC TID, after the first dose on day 5) | IC50 ([3]; Mus musculus, Microglia, Table 6, unit inferred, footnote: Indicator of TL4 antagonism) [µM] | IC50 ([3]; Mus musculus, LPS (200 ng/ml), 24 h, BV-2 cells, Table 3) [µM] | Parent compound hepatocyte elimination half-life, Mouse (Mouse hepatocytes; cultured mouse hepatocytes) [min]
O=C1CC[C@]2(O)[C@@H]3Cc4ccc(O)c5c4[C@]2(CCN3CC2CC2)[C@@H]1O5 [(+)-naltrexone, reference compound] | not effective | none | NONE | some efficacy | good viability and inhibition | 50 to 60 | 50 to 60 | significantly higher glucuronidation | No significant adverse effects | – | – | – | – | – | –
COc1ccc2c3c1O[C@@H]1C(F)CCC4[C@H](C2)N(CC2CC2)CC[C@]341 (stereo partly shown) [XT-203] | substantial effects | activity at two targets | – | – | good viability and inhibition | – | – | – | No significant adverse effects | matching the response to morphine | does not show reversal of allodynia | some significant efficacy | 30 | 30 to 50 | 26.28
